In one experiment the target is T1, HA-OGR1 (GPR68) (Homo sapiens, UniProt Q15743).
T1 construct: HA; expressed in transfected cells
Description: Ca2+ mobilization assay (Fluo-4). It counts as cell-based. Particulars: GPR68, calcium mobilization, mean, SEM and n (3-5) in separate columns. On the procedure: Peptide-dependent Ca^2+ mobilization responses were measured in HEK293 stable cell lines (HA-OGR1 (GPR68) and vector pcDNA) ([Saxena et al., 2012]) that were seeded in 96-well plates (1 × 10^5 cells/well) and cultured at 37°C with 5% CO2 to near confluence in DMEM with 10% FBS (Corning). Six hours prior to assay, medium was changed to pH 8.0 or pH 7.4 HAM’s F12 Nutrient Mixture (GIBCO) without FBS and transferred to a 37°C incubator without CO2. One hour prior to stimulation, cells were incubated in pH 8.0 or pH 7.4 HBSS with Ca^2+ and Mg^2+ (GIBCO), supplemented with 15 mM HEPES, 2 μM Fluo-4 AM (Invitrogen) and 1.5 mM probenecid ([…] to prevent Fluo-4 efflux) as described previously ([Pera et al., 2018]). Indicated peptides were pipetted using an automated system and emission signal was recorded at 525 nm after excitation at 485 nm using Flex Station III (Molecular Devices). Ca^2+ mobilization responses were determined by subtracting basal fluorescence from the net peak of agonist-induced fluorescence. Ionomycin (1 μM) was used to calculate the maximum Ca^2+ signal to normalize peptide-mediated responses.
In general terms: A change in cytosolic calcium serves as a functional read-out for many receptors and channels.

The target of experiment [1] is T2, GPR68 (Homo sapiens, UniProt Q15743). Description: Dynamic mass redistribution (DMR), concentration-response. In kind it is cell-based. Details: hIL-2Ra signal peptide (N); expressed in transfected cells. Particulars: GPR68; dynamic mass redistribution, concentration-response; mean, SEM and n (3-4). In outline:
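Doxycycline-induced (0.1 μg/ml) SNAP-tagged receptors in TREx 293 cells, equilibrated 90 min at 22°C in HEPES-buffered HBSS, pH 7.4, with 0.1% DMSO. Peptide-evoked optical wavelength shift recorded for 60 min at 22°C, buffer/solvent corrected and quantified as area under the curve. Mean ± SEM of at least 3 independent experiments.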
Target sequence in this assay (Q15743 2-365 limits assumed): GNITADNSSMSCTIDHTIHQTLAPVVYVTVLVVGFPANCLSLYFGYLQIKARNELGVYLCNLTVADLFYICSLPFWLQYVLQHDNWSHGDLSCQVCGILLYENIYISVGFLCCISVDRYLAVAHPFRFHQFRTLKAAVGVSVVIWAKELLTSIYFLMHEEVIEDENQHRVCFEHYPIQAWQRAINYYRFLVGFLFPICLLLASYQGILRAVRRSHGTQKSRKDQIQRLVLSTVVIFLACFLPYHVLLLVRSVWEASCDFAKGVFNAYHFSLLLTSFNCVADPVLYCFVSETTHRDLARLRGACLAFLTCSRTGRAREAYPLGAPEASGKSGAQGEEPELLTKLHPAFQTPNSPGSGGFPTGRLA

Experiment [2] concerns the target T2, GPR68. Description: Real-time receptor internalization (TR-FRET), concentration-response. In kind it is cell-based. Details: hIL-2Ra signal peptide (N); expressed in transfected cells. Particulars: GPR68; real-time internalization; mean, SEM and n (3). Summed up:
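Doxycycline-induced SNAP-tagged receptor cells had surface receptors labelled with Lumi4-Tb and fluorescein-O-acetic acid added. TR-FRET internalization after peptide addition was recorded for 60 min at 37°C (ex 340, em 520/615 nm). Area under the curve, normalized to plate average, gave concentration-response curves.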
Target sequence in this assay (Q15743 2-365 limits assumed): as above
(Time-resolved FRET reads energy transfer from a long-lived donor to a nearby acceptor.)

In experiment [3] the target is T2, GPR68. Description: GloSensor cAMP assay (Gs), allosteric operational model fitting. In kind it is cell-based. Details: expressed in transfected cells; host or cells: HEK293T, transient (PEI), co-transfected with GloSensor cAMP plasmid. Particulars: GPR68; GloSensor cAMP; mean, SEM and n (4). On the procedure:
GPR68-mediated cAMP signaling was measured using GloSensor cAMP assays as published previously ([Huang et al., 2015], [Yu et al., 2019]) with modifications as indicated below. Calcium- and magnesium-free HBSS was supplemented with different organic buffer reagents for different pH solutions, 20 mM 2-(N-morpholino)ethanesulfonic acid (MES, Alfa Aesar) for pH 6.00 – 6.70, 20 mM 4-(2-hydroxyethyl)-1-piperazineethanesulfonic acid (HEPES, Fisher) for pH 6.80 – 8.20, and 20 mM (tris(hydroxymethyl)methylamino)propanesulfonic acid (TAPS) for pH 8.30 – 8.60. The phosphodiesterase (PDE) inhibitor Ro 20-1724 (10 μM final, Cayman Chemical) was included in pH buffers to eliminate potential effect of PDE […]. HEK293T cells were transfected with a modified polyethylenimine (PEI, Polysciences) transfection method ([Longo et al., 2013]). For a 15-cm dish of HEK293T cells with 25 mL growth medium, 8 μg receptor DNA and 8 μg GloSensor DNA (Promega) were mixed in 1 mL of Opti-MEM medium followed by addition of 80 μL PEI reagents. The mixture was added to cells after 20 min incubation at room temperature. Overnight transfected cells were plated in poly-L-lysine (Sigma) coated 384-well white clear bottom plates (Greiner Bio-One, #781098) using DMEM (Corning) + 1% dialyzed FBS (Omega Scientific) for at least 6 h (up to 24 h). Cells were removed of medium before receiving 20 μL/well of 3.5 mM luciferin (Goldbio) prepared in assay buffer (HBSS, 20 mM TAPS, pH 8.40, 10 μM Ro 20-1724) for 1 h at 37°C. Luciferin loading solutions were removed and premixed drug solutions at desired pH conditions were added to cells (25 μL/well). Luminescence was measured 25-30 min after drug application. Results were normalized (basal and maximum responses in the absence of modulator were set to be 0 and 100%) and pooled for analysis using GraphPad Prism.
All of the other parameters, including allosteric affinity cooperativity (α), allosteric modulator binding affinity KB, orthosteric agonist (protons) efficacy τA, system maximal response, and slope factor n were all globally shared for all datasets for each modulator. […] We therefore used an allosteric index, log(αβ/KB) ([Kenakin, 2017a]), which contains both allosteric binding affinity and cooperativity, to quantify the overall allosteric activity.
Target sequence in this assay (Q15743 whole entry): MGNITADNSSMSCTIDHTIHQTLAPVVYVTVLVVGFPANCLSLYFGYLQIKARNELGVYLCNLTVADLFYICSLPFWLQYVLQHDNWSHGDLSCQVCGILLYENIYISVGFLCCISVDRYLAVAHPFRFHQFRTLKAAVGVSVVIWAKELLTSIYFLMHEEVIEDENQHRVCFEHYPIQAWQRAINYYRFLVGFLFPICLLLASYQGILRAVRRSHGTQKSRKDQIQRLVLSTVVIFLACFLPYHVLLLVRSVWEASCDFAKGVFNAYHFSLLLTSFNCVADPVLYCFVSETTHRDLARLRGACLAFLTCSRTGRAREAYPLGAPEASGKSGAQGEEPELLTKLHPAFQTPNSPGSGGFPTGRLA

In another experiment the target is T3, MAS1 (Homo sapiens, UniProt P04201).
T3 construct: host or cells: HTLA cells (HEK293-derived)
T3 sequence (P04201 1-325): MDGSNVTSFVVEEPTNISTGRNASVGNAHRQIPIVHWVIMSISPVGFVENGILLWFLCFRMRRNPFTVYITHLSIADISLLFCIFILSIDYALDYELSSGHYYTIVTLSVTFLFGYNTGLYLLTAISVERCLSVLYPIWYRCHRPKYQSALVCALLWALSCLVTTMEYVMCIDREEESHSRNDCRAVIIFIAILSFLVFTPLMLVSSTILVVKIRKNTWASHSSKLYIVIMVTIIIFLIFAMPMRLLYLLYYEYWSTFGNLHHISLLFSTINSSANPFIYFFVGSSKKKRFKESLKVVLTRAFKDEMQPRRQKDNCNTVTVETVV
In words: β-arrestin recruitment (Tango), indicative pairing. Particulars: mean, n = 3. It counts as cell-based. Here is the method:
The peptide library was additionally screened against 120 GPCR targets in parallel, including all available orphan receptors and 27 known class A peptide receptors using the Tango assay platform ([Kroeze et al., 2015]). Briefly, HTLA cells (a HEK293 cell line stably expressing a tTA-dependent luciferase reporter and a β-arrestin2-TEV fusion gene) were plated 10,000 cells/well in poly-L-lysine–coated clear-bottom white 384-well plates in DMEM supplemented with 10% FBS, 100 U/ml penicillin and 100 μg/ml streptomycin, 2 μg/ml puromycin and 100 μg/ml hygromycin B. 24 hr later, cells were transfected with Tango GPCR constructs using the calcium phosphate method ([Jordan et al., 1996]). The next day, culture medium was changed to DMEM + 1% dFBS and 10 μM peptides were added for overnight stimulation. Bright-Glo solution (Promega) was incubated for 15–20 min at room temperature, and luminescence was counted using a Trilux luminescence counter (Wallac).
For subsequent peptide validation experiments using Tango assays, HTLA cells were transiently transfected in 10 cm dishes with the receptor of interest using polyethylenimine (PEI) ([Longo et al., 2013]). After 24 hr, 25,000 cells/well were plated in clear bottom, white-walled 384-well plates. Assays were performed as described above, with luminescence measured using an EnSpire 2300 Multimode plate reader (PerkinElmer). Luminescence counts were exported into Excel and were analyzed using GraphPad Prism 7.

The target in another experiment is T4, MRGPRX2 (Homo sapiens, UniProt Q96LB1).
T4 construct: host or cells: HTLA cells (HEK293-derived)
T4 sequence (Q96LB1 1-330): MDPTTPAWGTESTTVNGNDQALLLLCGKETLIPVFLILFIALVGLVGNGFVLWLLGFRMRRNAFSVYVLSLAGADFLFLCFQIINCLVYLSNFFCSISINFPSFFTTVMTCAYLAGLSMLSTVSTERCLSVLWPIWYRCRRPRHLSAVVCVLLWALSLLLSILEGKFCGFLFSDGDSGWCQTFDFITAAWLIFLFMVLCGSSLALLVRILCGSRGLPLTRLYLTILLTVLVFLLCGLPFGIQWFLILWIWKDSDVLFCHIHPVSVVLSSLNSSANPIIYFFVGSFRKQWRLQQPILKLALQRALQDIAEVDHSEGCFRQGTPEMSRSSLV
In words: β-arrestin recruitment (Tango), known peptide receptors. Particulars: mean, n = 3. In kind it is cell-based. A general note: Activated receptors often draw arrestin, which recruitment assays turn into a signal.

In experiment [4] the test system is 120 GPCR targets, including all available orphan receptors and 27 known class A peptide receptors. Description: Peptide library screen, β-arrestin recruitment (Tango, fold change, 10 μM). In kind it is cell-based, human. Particulars: for Active at: (activity in b-arrestin recruitment assays): Tango, receptor(s) at which the known library peptide was active, among its known GPCR target(s), validated pairings; for Confirmation of known target in Tango: repeat hitters of the peptide library screen, the value names the known receptor(s) confirmed in the β-arrestin recruitment (Tango) screen. In outline:
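HTLA cells (HEK293 with tTA-dependent luciferase and β-arrestin2-TEV) transiently transfected with Tango GPCR constructs, then stimulated overnight with 10 μM peptides in 1% dFBS medium. Luciferase luminescence read after 15–20 min Bright-Glo incubation at room temperature.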

Positions of bridges follow the written chain, without caps; N, C: chain ends. Residues, ends and D or L forms follow the SMILES beside them.

One may read the Emax as the maximal effect, on the per cent scale that the assay sets.

T1 sequence (Q15743 whole entry): as the sequence (Q15743 whole entry) above

As to `CC[C@H](C)[C@H](NC(=O)[C@H](CCCNC(=N)N)NC(=O)[C@H](C)NC(=O)CNC(=O)[C@H](CCCCN)NC(=O)[C@H](CCCNC(=N)N)NC(=O)[C@@H](NC(=O)[C@H](C)NC(=O)[C@@H]1CSSC[C@H](NC(=O)[C@H](CCSC)NC(=O)[C@@H]2CCCN2C(=O)[C@@H](NC(=O)[C@H](CCC(N)=O)NC(=O)CNC(=O)[C@@H](N)Cc2ccc(O)cc2)C(C)C)C(=O)N[C@@H](CC(=O)O)C(=O)N[C@@H](C)C(=O)NCC(=O)N[C@@H](CCC(=O)O)C(=O)N[C@@H](CCC(N)=O)C(=O)N1)C(C)C)C(N)=O` [139 original] (H-YGQVPMCDAGEQCAVRKGARI-NH2; disulfide 7-13; N-terminus assumed), the Emax on HA-OGR1 (GPR68) (read-out: Calcium mobilization assays Emax (% ionomycin)) was 73.1%. At HA-OGR1 (GPR68) (read-out: Calcium mobilization assays pEC50 (converted)), the EC50 was 7.08 µM. In addition, on GPR68 [1], the “DMR assays Emax (peak or AUC)” value was 944453. In addition, on GPR68 [2], the “Internalization assays Emax (AUC)” value came out at 9.4.
For the compound `CC[C@H](C)[C@H](NC(=O)[C@H](CCCNC(=N)N)NC(=O)[C@H](C)NC(=O)CNC(=O)[C@H](CCCCN)NC(=O)[C@H](CCCNC(=N)N)NC(=O)[C@@H](NC(=O)[C@H](C)NC(=O)[C@@H]1CSSC[C@H](NC(=O)[C@H](CCSC)NC(=O)[C@@H]2CCCN2C(=O)[C@@H](NC(=O)[C@H](CCC(N)=O)NC(=O)CNC(=O)[C@@H](N)Cc2ccc(O)cc2)C(C)C)C(=O)N[C@@H](CC(=O)O)C(=O)N[C@@H](C)C(=O)NCC(=O)N[C@@H](CCC(=O)O)C(=O)N[C@@H](CCC(N)=O)C(=O)N1)C(C)C)C(N)=O` [139 resynthesized] (H-YGQVPMCDAGEQCAVRKGARI-NH2; disulfide 7-13; N-terminus and C-terminus assumed), at GPR68 [3], the “GloSensor cAMP assays Emax (fold change)” value was determined as 25.2 fold change. The “DMR assays Emax (peak or AUC)” value at GPR68 [1] came out at 749669. Further, on GPR68 [2], the “Internalization assays Emax (AUC)” value is listed as 13.6.
For “AGCKNFFWKTFTSC (disulfide) [Peptide 103]”, at MAS1, the “pEC50, Tango (fold over basal)” value is 4.33. Moreover, at MRGPRX2, the “Emax, Tango (fold over basal)” value was determined as 6.6 fold over basal and the “pEC50, Tango (fold over basal)” value amounted to 4.98. In experiment [4], the “Active at: (activity in b-arrestin recruitment assays)” value is “SST2” and the “Confirmation of known target in Tango” value is “SST2”.
“DRMPCRNFFWKTFSSCK (disulfide) [Peptide 121]”: the “pEC50, Tango (fold over basal)” value on MAS1 is recorded as 4.96. The “Confirmation of known target in Tango” value in experiment [4] was “SST2”.
As for “KPLRKDENGTSVAEYPMSASQSNKGVDVNNAVV [Peptide 193]”, at MAS1, the “Emax, Tango (fold over basal)” value came out at 1.3 fold over basal and the “pEC50, Tango (fold over basal)” value is given as 9.32.
Turning to YGGFLRRIRPKLKWDNQ [Peptide 119], the “pEC50, Tango (fold over basal)” value at MAS1 is 5.04. Besides, in experiment [4], the “Active at: (activity in b-arrestin recruitment assays)” value is on record as “kappa” and the “Confirmation of known target in Tango” value is recorded as “kappa, mu”.
